Holding throughout (assay type): biochemical
Experiment [1] concerns the target T1, HDAC8 (Homo sapiens, UniProt Q9BY41).
T1 construct: purchased Cayman Chemicals
T1 sequence (Q9BY41 1-377): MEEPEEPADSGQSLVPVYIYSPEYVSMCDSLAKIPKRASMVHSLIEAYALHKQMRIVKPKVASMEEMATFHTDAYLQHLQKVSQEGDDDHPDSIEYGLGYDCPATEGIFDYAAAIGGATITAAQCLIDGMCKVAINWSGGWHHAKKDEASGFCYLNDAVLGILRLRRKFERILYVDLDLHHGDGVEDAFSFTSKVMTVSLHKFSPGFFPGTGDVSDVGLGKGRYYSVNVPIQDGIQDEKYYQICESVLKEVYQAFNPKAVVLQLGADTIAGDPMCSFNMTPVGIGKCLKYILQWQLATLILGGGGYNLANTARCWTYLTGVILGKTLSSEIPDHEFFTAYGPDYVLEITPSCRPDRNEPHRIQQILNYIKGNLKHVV
The experiment is described as follows: LCMS characterization of enzymatic deacetylation by HDAC8. Particulars: 5 μM probe, 12 hours at 37° C. As for the experimental part: The enzymatic cleavage of HP-1 and HP-2 was analyzed by performing LCMS assays with HeLa nuclear extract (AnaSpec), HeLa whole cell lysate (Santa Cruz Inc.), and the following purified HDAC isoforms: 1, 2, 3, 6 and 8 (HDAC1, 3 and 8 from Cayman Chemicals and HDAC2 and 6 provided by Dr. Stephen Haggarty). Solutions containing (i) vehicle with DMSO in HDAC buffer, (ii) 5 μM probe in HDAC buffer, (iii) 5 μM probe and HDAC enzyme/HeLa nuclear extract/HeLa whole cell lysate in HDAC buffer, or (iv) 5 μM probe and HDAC enzyme/HeLa nuclear extract/HeLa whole cell lysate pre-incubated with 10 μM SAHA (Provided by Dr. Stephen Haggarty) in HDAC buffer were incubated for 12 hours at 37° C. Following incubation, a 20 μL aliquot of supernatant from each sample was analyzed by LCMS. […] For HP-1, the (M+H)^+ ion for the corresponding aldehyde (8, DHP-1) was detected, which formed following reaction of the initial imine deacetylation product with water. […] The peak area for each detected compound was measured to determine the % deacetylation of each probe. All assay samples were analyzed in triplicate. […]
LCMS characterization of HDAC enzymatic action on HP-1 and HP-2. […] Following incubation, an aliquot of supernatant from each sample was analyzed by LCMS. […] The peak area for each detected compound was measured to determine the % deacetylation of each probe (full experimental details in Example 1).

Another experiment deals with HDAC2 (Homo sapiens, UniProt Q92769). The experiment can be described thus: Caliper microfluidic endpoint IC50 assay. How it is done:
(§1) HP-1 and HP-2 IC50 values for HDAC1 were determined using the Trypsin-coupled assay as well as the Caliper endpoint assay. HP-1 and HP-2 IC50 values for HDAC2, HDAC3, HDAC6 and HDAC8 were determined with the Caliper endpoint assay.
(§2) The Caliper microfluidic assay was performed at the Broad Institute exactly as previously described.^5
(§3) IC50 measurements. HP-1 and HP-2 IC50 values for HDAC1 were determined using the Trypsin-coupled assay as well as the Caliper endpoint assay. HP-1 and HP-2 IC50 values for HDAC2, HDAC3, HDAC6 and HDAC8 were determined with the Caliper endpoint assay (full experimental details in Example 1).

The next experiment concerns the target T2, HDAC3 (Homo sapiens, UniProt O15379).
T2 construct: purchased Cayman Chemicals
The experiment is described as follows: Caliper microfluidic endpoint IC50 assay. How it is done: as §1, §2, §3

For experiment [2], the target named is T1, HDAC8. The experiment is described as follows: Caliper microfluidic endpoint IC50 assay. How it is done: as §1, §2, §3

Chain of HDAC2 (Q92769 whole entry, species assumed): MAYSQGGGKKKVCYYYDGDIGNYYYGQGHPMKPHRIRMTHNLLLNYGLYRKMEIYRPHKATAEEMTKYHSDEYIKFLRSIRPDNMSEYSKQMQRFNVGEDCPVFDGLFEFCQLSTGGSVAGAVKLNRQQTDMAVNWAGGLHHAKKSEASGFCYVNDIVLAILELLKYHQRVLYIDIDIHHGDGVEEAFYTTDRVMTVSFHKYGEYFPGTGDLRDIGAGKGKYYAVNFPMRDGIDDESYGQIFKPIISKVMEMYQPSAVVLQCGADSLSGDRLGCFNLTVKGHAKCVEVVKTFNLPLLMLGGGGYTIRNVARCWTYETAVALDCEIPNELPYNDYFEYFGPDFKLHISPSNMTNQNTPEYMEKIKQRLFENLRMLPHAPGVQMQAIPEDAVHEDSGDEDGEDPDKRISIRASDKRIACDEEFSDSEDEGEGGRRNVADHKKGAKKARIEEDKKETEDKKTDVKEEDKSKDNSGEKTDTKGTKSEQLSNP
T2 sequence (O15379 whole entry): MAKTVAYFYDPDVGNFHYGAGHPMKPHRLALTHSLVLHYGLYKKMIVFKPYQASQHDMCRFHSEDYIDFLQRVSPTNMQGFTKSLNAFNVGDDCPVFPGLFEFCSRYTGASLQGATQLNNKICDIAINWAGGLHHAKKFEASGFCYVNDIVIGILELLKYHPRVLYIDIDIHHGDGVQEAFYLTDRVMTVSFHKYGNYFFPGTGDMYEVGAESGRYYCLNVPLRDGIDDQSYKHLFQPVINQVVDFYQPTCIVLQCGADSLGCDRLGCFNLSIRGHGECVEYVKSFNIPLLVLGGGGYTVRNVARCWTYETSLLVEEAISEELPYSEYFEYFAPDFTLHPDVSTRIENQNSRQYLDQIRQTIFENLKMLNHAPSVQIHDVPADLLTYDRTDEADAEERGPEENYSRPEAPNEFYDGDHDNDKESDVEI
T2 sequence (Q9Y618 395-489 partner limits assumed): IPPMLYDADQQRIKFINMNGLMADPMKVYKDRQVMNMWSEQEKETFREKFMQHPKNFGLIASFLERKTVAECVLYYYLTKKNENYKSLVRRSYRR

Consider `CC(=O)NC=CCCCCNC(=O)CCCCCNc1ccc([N+](=O)[O-])c2nonc12` [HP-1], for which the “% HP-1 to DHP-1” value on HDAC8 [1] (HDAC8, +SAHA (10 μM)) is reported as 0%; on HDAC8 [1] (HDAC8, −SAHA), 0%. Moreover, the IC50 (usually the point on the concentration scale where inhibition reaches its midpoint) was greater than 70 µM at HDAC2, 59 µM at HDAC3 and greater than 70 µM at HDAC8 [2].

(Values after patent publication US20160138077A1, “MONITORING AND ASSESSING DEACETYLASE ENZYME ACTIVITY” (THE GENERAL HOSPITAL CORPORATION, priority 2013, published 2016).)
